Read-outs that look alike come from different tables or passages of the source.
Tests used:
Type in all cases: cell-based
[1] = system: HIV-1 clinical isolated, characterised by mutations in the RT gene inducing geno-phenotypic resistance to 3TC; test: p24 production susceptibility test (ACTG protocol), Table 3; settings: for EC50: Human immunodeficiency virus 1, PBMC, read-out: E.C.50 CQ; for S.I. CQ / Fen. CQ (fold): PBMC; for S.I. CQ: I.C.50/E.C.50; for Fen. CQ (fold): ratio to HIV-IIIB
Text: (§1) For the phenotype of the nucleosidic, non-nucleosidic and proteases inhibitors was utilised a method which consider the use of human PBMC and the protocol standardised by the AIDS Clinical Trials Group, after verifying the genotype by sequence analysis.
(§2) In order to assay in vitro the susceptibility to chloroquine and hydroxychloroquine of the viral strains, it was used the protocol of the ACTG which is characterised by the measure, of the production of antigen p24 in strongly infected cells.
(§3) The susceptibility of the viral strains to chemotherapics was determined in cell cultures, prepared in 96 wells microplates, using, for the infection, 0.1 MOI.
(§4) The supernatant of the infected cultures (either in absence or in presence of different concentrations of chemotherapic) were tested for the production of p24 after 7 days, using an ELISA test which is commercially available.
At the same time non-infected cells were incubated with concentrations of chloroquine and hydroxychloroquine ranging from 0 to 50 uM to evaluate the toxicity of the compound.
(§5) After 4 day from the infection, half the cellular medium was replaced with a medium containing the corresponding dilution of chloroquine and hydroxychloroquine. The percentage of inhibition of the HIV replication, induced by chloroquine and hydroxychloroquine, was determined, after 7 day from the infection, comparing the levels of p24 of this cultures and that of the control, infected and not treated with chloroquine and hydroxychloroquine.
(§6) Therefore, the E.C.50 of chloroquine and hydroxychloroquine expresses the concentration of chemotherapic that inhibits the 50% of production of p24 and the values were calculated using linear and non linear regression analysis (the significativity for the non linear regression was R^2>0.95).
(§7) In the same experimental conditions and in the same day, but with similar concentrations of chloroquine and hydroxychloroquine, it was evaluated the vitality of the infect cell cultures, and this was expressed as I.C.50.
(§8) I.C.50 (Inhibitory Concentration) indicates the concentration of the chemotherapic agent inhibiting the vitality of the cell cultures at a rate of 50%, when there is not infection.

[2] = system: HIV-1 clinical isolated, characterised by mutations in the RT gene inducing geno-phenotypic resistance to d4T; test: p24 production susceptibility test (ACTG protocol), Table 4; settings: for EC50: Human immunodeficiency virus 1, PBMC, read-out: E.C.50 CQ; for S.I. CQ / Fen. CQ (fold): PBMC; for S.I. CQ: I.C.50/E.C.50; for Fen. CQ (fold): ratio to HIV-IIIB
Text: as §1, §2, §3, §4
(§9) The concentrations of chloroquine and hydroxychloroquine tested ranged from 0.5 to 15 uM. At the same time non-infected cells were incubated with concentrations of chloroquine and hydroxychloroquine ranging from 0 to 50 uM to evaluate the toxicity of the compound.
as §5, §6, §7, §8

[3] = system: HIV-1 clinical isolated, characterised by mutations in the RT gene inducing geno-phenotypic resistance to ABC; test: p24 production susceptibility test (ACTG protocol), Table 5; settings: for EC50: Human immunodeficiency virus 1, PBMC, read-out: E.C.50 CQ; for S.I. CQ / Fen. CQ (fold): PBMC; for S.I. CQ: I.C.50/E.C.50; for Fen. CQ (fold): ratio to HIV-IIIB
Text: as §1, §2, §3, §4, §9, §5, §6, §7, §8

[4] = system: HIV-1 clinical isolated, characterised by mutations in the protease gene inducing geno-phenotypic resistance to SQV; test: p24 production susceptibility test (ACTG protocol), Table 8; settings: for EC50: Human immunodeficiency virus 1, PBMC, read-out: E.C.50 CQ; for S.I. CQ / Fen. CQ (fold): PBMC; for S.I. CQ: I.C.50/E.C.50; for Fen. CQ (fold): ratio to HIV-IIIB
Text: as §1, §2, §3, §4, §9, §5, §6, §7, §8

[5] = system: HIV-1 clinical isolated, characterised by mutations on the protease gene inducing geno-phenotypic resistance to NFV; test: p24 production susceptibility test (ACTG protocol), Table 10, PBMC; settings: for S.I. CQ: I.C.50/E.C.50; for Fen. CQ (fold): ratio to HIV-IIIB; for EC50: Human immunodeficiency virus 1, PBMC, read-out: E.C.50 CQ
Text: as §1, §2, §3, §4, §9, §5, §6, §7, §8

[6] = system: HIV-1 strains cultivated in PBMC and isolated from patient naive to the treatment; test: p24 production susceptibility test (ACTG protocol), Table 11; settings: for EC50: Human immunodeficiency virus 1, PBMC; for S.I. CQ: I.C.50/E.C.50
Experimental: as §2, §3, §4, §9, §5, §6, §7, §8

[7] = Gen. M4IL E44D D67N M184V R211K T215Y
[8] = Gen. M41L D67N V118I M184V T215Y
[9] = Gen. K65R F77L Y115F Q151M M184V
[10] = Gen. K65R S68G F77L Y115F Q151M M184V
[11] = Gen. M41L D67N M184V L210W T215Y

Question: Which results are given for `CCN(CC)CCCC(C)Nc1ccnc2cc(Cl)ccc12` (centres unmarked) [CQ, chloroquine]?
Answer: EC50 [1, 7]: 3000 nM; EC50 [1, 8]: 3500 nM; EC50 ([1]; Gen. M184I): 2500 nM; EC50 ([1]; Gen. M184V): 3200 nM; S.I. CQ [1, 7]: 3; Fen. CQ (fold) [1, 7]: 2.1X fold; S.I. CQ [1, 8]: 3.4; Fen. CQ (fold) [1, 8]: 1.9X fold; S.I. CQ ([1]; Gen. M184I): 3.6; Fen. CQ (fold) ([1]; Gen. M184I): 1.1X fold; S.I. CQ ([1]; Gen. M184V): 2.5; Fen. CQ (fold) ([1]; Gen. M184V): 1.4X fold; EC50 [2, 9]: 3500 nM; EC50 ([2]; Gen. K65R F116Y Q151M): 3500 nM; EC50 ([2]; Gen. M41I T69SSS T215Y): 2800 nM; EC50 ([2]; Gen. T69SSS T215Y): 2800 nM; EC50 ([2]; Gen. V75I F77L F116Y Q151M): 2200 nM; S.I. CQ [2, 9]: 3.4; Fen. CQ (fold) [2, 9]: 2.3X fold; S.I. CQ ([2]; Gen. K65R F116Y Q151M): 3.4; Fen. CQ (fold) ([2]; Gen. K65R F116Y Q151M): 2.3X fold; S.I. CQ ([2]; Gen. M41I T69SSS T215Y): 3.4; Fen. CQ (fold) ([2]; Gen. M41I T69SSS T215Y): 1.8X fold; S.I. CQ ([2]; Gen. T69SSS T215Y): 3.4; Fen. CQ (fold) ([2]; Gen. T69SSS T215Y): 1.8X fold; S.I. CQ ([2]; Gen. V75I F77L F116Y Q151M): 3; Fen. CQ (fold) ([2]; Gen. V75I F77L F116Y Q151M): 1.5X fold; EC50 ([3]; Gen. K65R L74V M184V): 1800 nM; EC50 [3, 10]: 2500 nM; EC50 ([3]; Gen. L74V M184F): 1800 nM; EC50 ([3]; Gen. L74V Y115F M184V): 2200 nM; EC50 [3, 11]: 2200 nM; S.I. CQ ([3]; Gen. K65R L74V M184V): 5.5; Fen. CQ (fold) ([3]; Gen. K65R L74V M184V): 1.2X fold; S.I. CQ [3, 10]: 3.6; Fen. CQ (fold) [3, 10]: 1.6X fold; S.I. CQ ([3]; Gen. L74V M184F): 5.5; Fen. CQ (fold) ([3]; Gen. L74V M184F): 1.2X fold; S.I. CQ ([3]; Gen. L74V Y115F M184V): 4; Fen. CQ (fold) ([3]; Gen. L74V Y115F M184V): 1.2X fold; S.I. CQ [3, 11]: 4; Fen. CQ (fold) [3, 11]: 1.4X fold; EC50 ([4]; Gen. G48V I84V A74V L90M): 1800 nM; EC50 ([4]; Gen. G48V V82A): 3500 nM; EC50 ([4]; Gen. I84V L90M): 2500 nM; EC50 ([4]; Gen. M46I G48V L63P L90M): 2000 nM; EC50 ([4]; Gen. V82A L90M): 1500 nM; S.I. CQ ([4]; Gen. G48V I84V A74V L90M): 5.5; Fen. CQ (fold) ([4]; Gen. G48V I84V A74V L90M): 1X fold; S.I. CQ ([4]; Gen. G48V V82A): 3.4; Fen. CQ (fold) ([4]; Gen. G48V V82A): 1.9X fold; S.I. CQ ([4]; Gen. I84V L90M): 3.6; Fen. CQ (fold) ([4]; Gen. I84V L90M): 1.3X fold; S.I. CQ ([4]; Gen. M46I G48V L63P L90M): 6.7; Fen. CQ (fold) ([4]; Gen. M46I G48V L63P L90M): 1.1X fold; S.I. CQ ([4]; Gen. V82A L90M): 6; Fen. CQ (fold) ([4]; Gen. V82A L90M): 0.8X fold; S.I. CQ ([5]; Gen. D30N A71V): 5.5; Fen. CQ (fold) ([5]; Gen. D30N A71V): 1X fold; S.I. CQ ([5]; Gen. D30N M46V A71V): 4; Fen. CQ (fold) ([5]; Gen. D30N M46V A71V): 1.2X fold; S.I. CQ ([5]; Gen. G48V V92A): 3.2; Fen. CQ (fold) ([5]; Gen. G48V V92A): 1.6X fold; S.I. CQ ([5]; Gen. V82F L90M): 3.4; Fen. CQ (fold) ([5]; Gen. V82F L90M): 1.5X fold; EC50 ([5]; Gen. D30N A71V): 1800 nM; EC50 ([5]; Gen. D30N M46V A71V): 2200 nM; EC50 ([5]; Gen. G48V V92A): 3000 nM; EC50 ([5]; Gen. V82F L90M): 2800 nM; EC50 ([6]; HIV-1 virus sensitive to the anti-retroviral treatment, range over each experiment, read-out: E.C.50): 1500 to 3500 nM; EC50 ([6]; PBMC, Virus N°1, read-out: E.C.50 CQ): 1500 nM; EC50 ([6]; PBMC, Virus N°2, read-out: E.C.50 CQ): 2200 nM; EC50 ([6]; PBMC, Virus N°3, read-out: E.C.50 CQ): 1800 nM; EC50 ([6]; PBMC, Virus N°4, read-out: E.C.50 CQ): 2500 nM; EC50 ([6]; PBMC, Virus N°5, read-out: E.C.50 CQ): 2000 nM; S.I. CQ ([6]; PBMC, Virus N°1): 5; S.I. CQ ([6]; PBMC, Virus N°2): 4; S.I. CQ ([6]; PBMC, Virus N°3): 5; S.I. CQ ([6]; PBMC, Virus N°4): 3.5; S.I. CQ ([6]; PBMC, Virus N°5): 4

From US20040006103A1, “Use of chloroquine, hydroxychloroquine and 4 amino-quinolinic derivatives to obtain a drug for the anti retroviral therapy, active towards HIV sensitive strains and towards HIV strains which are resistant to both nucleosidic and non-nucleosidic reverse transcriptase inhibitors and to proteases …” (VALPHARMA S.A., priority 2002, published 2004)
